Reference: publication PMC7060200, “Selective Binding of HSC70 and its Co-Chaperones to Structural Hotspots on CFTR” (Scientific Reports, 2020)
pKd: −log10 of the molar value. “Also recorded” adds a separate entry of the source. Ends that are not written are not given here.

Key:
HSC70 [1] = target: T1, HSC70 (Homo sapiens, UniProt P11142); assay: Competition ELISA: soluble peptide vs HSC70 binding to immobilized 1097-L; settings: for HSC70 binding site by competition screen (in words): 1 μM HSC70, 100 μM soluble peptide, Fig. 3c/5, cutoff twice SD of 733-L, n ≥ 4; for competition of HSC70 binding to immobilized 1097-L (in words): 1 μM HSC70, soluble peptide up to 100 μM
T1 construct: made in house
T1 sequence (P11142 whole entry): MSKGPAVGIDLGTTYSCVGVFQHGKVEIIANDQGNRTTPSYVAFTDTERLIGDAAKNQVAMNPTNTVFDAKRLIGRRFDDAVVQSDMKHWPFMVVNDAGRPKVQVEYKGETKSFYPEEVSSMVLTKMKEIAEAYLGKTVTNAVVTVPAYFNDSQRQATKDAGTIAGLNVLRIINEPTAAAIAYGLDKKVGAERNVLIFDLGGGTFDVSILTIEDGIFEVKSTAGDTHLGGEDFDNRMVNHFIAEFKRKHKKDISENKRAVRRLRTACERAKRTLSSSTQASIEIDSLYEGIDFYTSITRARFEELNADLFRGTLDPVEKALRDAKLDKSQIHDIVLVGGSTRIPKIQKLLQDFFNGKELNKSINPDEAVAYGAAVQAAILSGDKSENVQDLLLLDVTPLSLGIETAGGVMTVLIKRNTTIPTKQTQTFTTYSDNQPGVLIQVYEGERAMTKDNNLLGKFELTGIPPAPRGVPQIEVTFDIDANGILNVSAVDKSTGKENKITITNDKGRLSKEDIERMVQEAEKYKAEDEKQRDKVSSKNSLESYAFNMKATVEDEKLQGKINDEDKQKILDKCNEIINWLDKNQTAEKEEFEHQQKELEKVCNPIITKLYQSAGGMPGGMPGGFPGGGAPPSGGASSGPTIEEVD
Protocol: (§1) HSC70, DJA1 and DJA2 were purified as His-tagged proteins, as described. HSC70 was also amplified by PCR with an N-terminal FLAG tag, inserted into pPROEXHTa (Invitrogen) and purified as described. HSC70 was stored in 100 mM KOAc, 20 mM HEPES-KOH pH 7.5, 5 mM MgOAC2 (buffer G), DJA1 and DJA2 in 500 mM NaCl, 20 mM HEPES-KOH pH 7.5, 5 mM MgOAC2 (buffer H). Avi-tagged CFTR NBD1 was purified as described.
(§2) The CFTR peptide library was designed as 15-mers with 10-residue overlaps covering the cytosolic sequences as in Fig. 1a and Supplemental Table S1. Synthetic peptides (Mimotopes, PepSet purity) contained an N-terminal biotin followed by linker sequence GSGS and the 15-mer sequence. […] Peptides were reconstituted in DMSO or water.
(§3) For peptide binding, streptavidin-coated black 96-well plates (Nunc Maxisorp, ThermoFisher) were pre-rinsed with PBS containing 0.05% Tween-20 (PBST), and 5 µM biotinylated peptides in 100 µl PBS were bound overnnight at 4 °C with agitation. Plates were washed with PBST and blocked with PBST containing 0.5% bovine serum albumin (BSA) for 1 h. After removal of blocking solution, 100 µl reactions containing chaperones at indicated concentrations were bound for 45 min at room temperature with agitation. HSC70 reactions were in buffer G containing 1 mM ATP, DJA1 and DJA2 reactions were in buffer H. For competition assays, chaperones and peptides were mixed at indicated concentrations immediately before the reactions were added to the plates. For detections, the plates were washed in PBST and 5 μM His-Probe-HRP conjugate (ThermoFisher) in 100 μL PBST added for 15 min with agitation. After washing in PBST, plates were developed using Amplex Red (ThermoFisher) according to manufacturer’s instructions, in a fluorescence plate reader (Tecan M1000).
(§4) Affinities were determined separately from binding curves and from competition curves. Data from binding of chaperones to immobilized peptides (Fig. 2a,b and Supplemental Fig. S2a–c) were fit to the equation 1/(1 − i) = (C/i)/Kd^B − b, where i is the relative saturation, C is the chaperone concentration (1 μM), Kd^B is the apparent dissociation constant from the binding data. In the plot of 1/(1 − i) against (C/i), the slope is 1/Kd^B, and −b is the intercept. […] In the plot of bi + (C/Kd^B)/i over D, the slope is 1/Kd^C, and e is the intercept. The amount of chaperone bound in the absence of competitor was set as i = 1.
(§5) Established statistical methods[71]–[73] were used to analyze the data for chaperone binding to the peptide library. First, biological and statistical outliers were identified with the Tukey method in two rounds, for biological and then statistical outliers. […] Binding data were represented as multiples of the standard deviations from the normal means. Binding in the presence of competitor peptides were shown as a fraction of binding in the absence of competitor, or the fraction competed calculated as 1 – fraction bound. Values were compared using a two-tailed unpaired Student’s t-test assuming unequal variance.

HSC70 and DJA2 = assay: Refolding of guanidine denatured luciferase by HSC70 and DJA2; assay type: biochemical; settings: 4 μM each HSC70 and DJA2, 100 nM luciferase, 100 μM peptide (25-fold excess), 60 min, % of control without peptide; n = 3
Protocol: Refolding of guanidine denatured luciferase with HSC70 and DJA2 was as described. […] To monitor refolding, luciferase activity was measured in a luminometer (Berthold Sirius) with the luciferase assay kit (Promega). For co-IPs, 20 μL reaction aliquots were stopped by dilution at 4 °C to 500 μL with buffer containing 0.1% Triton X-100, 0.2% BSA and 0.04 mg/mL apyrase (Sigma). Reactions were incubated with FLAG-M2 magnetic beads (Sigma) for 1 h at 4 °C with agitation, then beads were isolated and washed with buffer G containing 0.1% Triton X-100, and eluted with 40 μL of 1 μg/mL FLAG peptide in the same buffer. Samples were analyzed on Western blots detected with antibodies against luciferase (Sigma, L2164) and the FLAG-M2 tag (Sigma, F1804).

DJA2 [2] = target: T2, DJA2 (Homo sapiens, UniProt O60884); assay: ELISA binding of DJA2 to immobilized biotinylated CFTR peptides; settings: for binding in peptide library screen, DJA2 (in words): 2 μM DJA2, absence of ATP, immobilized 15-mer, n ≥ 3
T2 construct: made in house
T2 sequence (O60884 whole entry): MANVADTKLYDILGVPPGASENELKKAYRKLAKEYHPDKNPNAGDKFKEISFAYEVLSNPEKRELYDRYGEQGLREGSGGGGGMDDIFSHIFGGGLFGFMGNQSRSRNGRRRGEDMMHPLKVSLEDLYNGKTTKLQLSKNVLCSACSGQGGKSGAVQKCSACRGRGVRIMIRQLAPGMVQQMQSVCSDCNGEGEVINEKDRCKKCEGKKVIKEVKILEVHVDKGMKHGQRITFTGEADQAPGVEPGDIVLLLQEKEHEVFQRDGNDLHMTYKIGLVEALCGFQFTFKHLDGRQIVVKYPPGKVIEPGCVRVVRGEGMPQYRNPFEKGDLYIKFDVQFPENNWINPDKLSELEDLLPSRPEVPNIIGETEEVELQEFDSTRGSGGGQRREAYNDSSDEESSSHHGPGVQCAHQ
Protocol: as §1, §2, §3, §4, §5

DJA1 [3] = target: T3, DJA1 (Homo sapiens, UniProt P31689); assay: ELISA binding of DJA1 to immobilized biotinylated CFTR peptides; settings: for binding in peptide library screen, DJA1 (in words): 2 μM DJA1, absence of ATP, immobilized 15-mer, n ≥ 3
T3 construct: made in house
Protocol: as §1, §2, §3, §4, §5

DJA1 [4] = target: T3, DJA1; assay: Competition ELISA: soluble peptide vs DJA1 binding to immobilized 1097-L; settings: for competition of DJA1 binding to immobilized 1097-L (in words): 1 μM DJA1, soluble peptide up to 100 μM
Protocol: as §1, §2, §3, §4, §5

DJA2 [5] = target: T2, DJA2; assay: Competition ELISA: soluble peptide vs DJA2 binding to immobilized 1097-L; settings: for competition of DJA2 binding to immobilized 1097-L (in words): 1 μM DJA2, soluble peptide up to 100 μM
Protocol: as §1, §2, §3, §4, §5

HSC70 [6] = target: T1, HSC70; assay: ELISA binding of HSC70 to immobilized biotinylated CFTR peptides; settings: for binding in peptide library screen, HSC70 (in words): 2 μM HSC70, with ATP, immobilized 15-mer, n ≥ 3; for HSC70 concentration at which binding reached saturation: titration on immobilized peptide
Protocol: as §1, §2, §3, §4, §5

How did the “HSC70 binding site by competition screen (in words)” value (“HSC70 binding site” for short) (HSC70 [1]) turn out when ILCEHRIEA [Peptide 1402-S, NBD2 9-mer] was run?
Its value is “HSC70 site”.

For FLYLSTLRWFQMRIE [Peptide 1097-L], which “competition of HSC70 binding to immobilized 1097-L (in words)” value (HSC70 [1]) is on record?
Its value is “Strong, essentially saturating competition”.

What about the pKd (HSC70 [1]; read-out: Kd from competition curves, HSC70) of the same substance?
The pKd was 6.22.

What about the “effect on luciferase refolding (in words)” value (HSC70 and DJA2) of the same substance?
Its value is “blocked refolding entirely”.

And the “binding in peptide library screen, DJA2 (in words)” value (DJA2 [2])?
The value was “most consistently bound by all three chaperones”.

And the “titration binding / saturation, DJA2 (in words)” value (DJA2 [2]; DJA2 titrated to 1.5 μM on immobilized peptide, Fig. 2b, S2c, n = 3)?
Its value is “at or close to saturation above 1 μM; also recorded: higher than to the other peptides”.

What about the pKd (DJA2 [2]; immobilized peptide (biotin-GSGS-15-mer), DJA2 titrated in buffer H pH 7.5, no nucleotide, 45 min, room temperature, n = 3, read-out: Kd from binding curves, DJA2) of the same substance?
Its pKd is 7.12.

And the “binding in peptide library screen, DJA1 (in words)” value (DJA1 [3])?
Its value is “most consistently bound by all three chaperones”.

And the “titration binding / saturation, DJA1 (in words)” value (DJA1 [3]; DJA1 titrated to 1.5 μM on immobilized peptide, Fig. 2b, S2b, n = 3)?
Its value is “at or close to saturation above 1 μM; also recorded: higher than to the other peptides”.

What about the pKd (DJA1 [3]; immobilized peptide (biotin-GSGS-15-mer), DJA1 titrated in buffer H pH 7.5, no nucleotide, 45 min, room temperature, n = 3, read-out: Kd from binding curves, DJA1) of the same substance?
Its pKd is 6.78.

What about the “competition of DJA1 binding to immobilized 1097-L (in words)” value (DJA1 [4]) of the same substance?
The value was “similarly competed”.

What about the pKd (DJA1 [4]; read-out: Kd from competition curves, DJA1) of the same substance?
The pKd was 5.61.

And the “competition of DJA2 binding to immobilized 1097-L (in words)” value (DJA2 [5])?
The value was “similarly competed”.

And the pKd (DJA2 [5]; read-out: Kd from competition curves, DJA2)?
The pKd was 6.23.

And the “HSC70 binding in ATP compared with ADP or no nucleotide” value (HSC70 [6]; 1 μM HSC70, immobilized 1097-L, Fig. S1a, n ≥ 4)?
Its value is “somewhat lower than in ADP or the absence of nucleotide”.

What about the “binding in peptide library screen, HSC70 (in words)” value (HSC70 [6]) of the same substance?
The value was “most consistently bound by all three chaperones”.

And the “titration binding / saturation, HSC70 (in words)” value (HSC70 [6]; HSC70 titrated to 1.5 μM on immobilized peptide, Fig. 2a, S2a, n ≥ 6)?
Its value is “higher than to the other peptides”.

What about the pKd (HSC70 [6]; immobilized peptide (biotin-GSGS-15-mer), HSC70 titrated in buffer G pH 7.5 + 1 mM ATP, 45 min, room temperature, n ≥ 6, read-out: Kd from binding curves, HSC70) of the same substance?
Its pKd is 7.24.

And the “HSC70 concentration at which binding reached saturation” value (HSC70 [6]; Fig. 2a, n ≥ 6)?
The value was “around 1 μM”.

How did the “competition of HSC70 binding to immobilized 1097-L (in words)” value (HSC70 [1]) turn out when FGVIPQKVFIFSGTF [Peptide 1293-L] was run?
The value was “Strong, essentially saturating competition; also recorded: only competed HSC70”.

What about the “competition of DJA1 binding to immobilized 1097-L (in words)” value (DJA1 [4]) of the same substance?
The value was “only competed HSC70”.

What about the “competition of DJA2 binding to immobilized 1097-L (in words)” value (DJA2 [5]) of the same substance?
The value was “only competed HSC70”.

And the “HSC70 concentration at which binding reached saturation” value (HSC70 [6]; Fig. 2a, n ≥ 6)?
The value was “around 1 μM”.

With DLYLLDSPF [Peptide 571-S, NBD1 9-mer] as the substance, how does the “HSC70 binding site” value (HSC70 [1]) read?
Its value is “bound only by DJA2”.

And the “DJA1 binding site by competition screen (in words)” value (DJA1 [4]; 1 μM DJA1, 100 μM soluble peptide, Fig. 3c/5, cutoff twice SD of 733-L, n ≥ 4)?
The value was “bound only by DJA2”.

And the “DJA2 binding site by competition screen (in words)” value (DJA2 [5]; 1 μM DJA2, 100 μM soluble peptide, Fig. 3c/5, cutoff twice SD of 733-L, n ≥ 4)?
The value was “bound only by DJA2”.

How did the “HSC70 binding site” value (HSC70 [1]) turn out when HRIEAMLEC [Peptide 1406-S, NBD2 9-mer] was run?
The value was “HSC70 site”.

What does the source list for “493-L: NBD1 15-mer 486-500 (GRISFCSQFSWIMPG; UniProt P13569 486-500, looked up, fragment) [Peptide 493-L]”?
competition of HSC70 binding to immobilized 1097-L (in words) (HSC70 [1]): competed poorly; binding in peptide library screen, DJA2 (in words) (DJA2 [2]): binding by DJA1, HSC70 and DJA2, in the original screen; binding in peptide library screen, DJA1 (in words) (DJA1 [3]): binding by DJA1, HSC70 and DJA2, in the original screen; competition of DJA1 binding to immobilized 1097-L (in words) (DJA1 [4]): competed poorly; competition of DJA2 binding to immobilized 1097-L (in words) (DJA2 [5]): competed poorly; binding in peptide library screen, HSC70 (in words) (HSC70 [6]): binding by DJA1, HSC70 and DJA2, in the original screen

What does the source list for SKLFFSWTR [Peptide 17-S]?
competition of HSC70 binding to immobilized 1097-L (in words) (HSC70 [1]): competed HSC70 well; effect on luciferase refolding (in words) (HSC70 and DJA2): partial but still significant
